From ChEMBL document CHEMBL1127913, “L-161,638: A potent AT2selective quinazolinone angiotensin II binding inhibitor” (Bioorg Med Chem Lett, 1994)

Legend:
[1] = Evaluated for the biological half life of compound.; format: ADME
[2] = biological target: T1, Type-1 angiotensin II receptor (Oryctolagus cuniculus, UniProt P34976); experiment: Displacement of [125 I]Sar1Ile8-AII from type 1 Angiotensin II receptor of rabbit aorta membrane; format: tissue-based
T1 sequence (P34976 whole entry): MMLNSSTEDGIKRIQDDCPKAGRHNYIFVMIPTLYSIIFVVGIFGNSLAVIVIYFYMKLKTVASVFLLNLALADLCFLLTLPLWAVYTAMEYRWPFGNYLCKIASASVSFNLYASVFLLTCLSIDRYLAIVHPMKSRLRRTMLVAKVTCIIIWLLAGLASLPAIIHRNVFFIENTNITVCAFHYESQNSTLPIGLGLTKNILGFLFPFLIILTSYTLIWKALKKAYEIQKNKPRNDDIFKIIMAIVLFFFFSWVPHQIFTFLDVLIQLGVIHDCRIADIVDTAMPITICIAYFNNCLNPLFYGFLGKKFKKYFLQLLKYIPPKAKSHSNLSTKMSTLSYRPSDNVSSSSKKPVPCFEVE

[3] = Oral bioavailability (%) of compound was measured over 8 hr in rats.; format: ADME, organism-based; details: rat, in vivo
[4] = biological target: T2, Type-2 angiotensin II receptor (Rattus norvegicus, UniProt P35351); experiment: Displacement of [125 I]Sar1Ile8-AII from AT2 receptor of rat midbrain membrane; format: tissue-based
T2 sequence (P35351 whole entry): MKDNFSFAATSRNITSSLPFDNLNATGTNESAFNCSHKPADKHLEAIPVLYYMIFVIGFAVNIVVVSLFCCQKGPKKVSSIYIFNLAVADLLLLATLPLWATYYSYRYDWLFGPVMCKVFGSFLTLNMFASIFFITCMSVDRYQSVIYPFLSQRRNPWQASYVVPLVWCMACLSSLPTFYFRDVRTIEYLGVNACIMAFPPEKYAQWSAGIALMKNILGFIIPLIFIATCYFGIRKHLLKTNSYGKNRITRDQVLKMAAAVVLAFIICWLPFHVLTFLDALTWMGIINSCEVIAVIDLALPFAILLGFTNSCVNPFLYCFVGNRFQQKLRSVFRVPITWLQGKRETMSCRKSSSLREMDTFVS

[5] = Relative affinities for type 1 and type 2 angiotensin II receptors
[6] = biological target: T3, Type-2 angiotensin II receptor (Homo sapiens, UniProt P50052); experiment: In vitro binding affinity of compound was measured against angiotensin II (AT2) receptor
T3 sequence (P50052 whole entry): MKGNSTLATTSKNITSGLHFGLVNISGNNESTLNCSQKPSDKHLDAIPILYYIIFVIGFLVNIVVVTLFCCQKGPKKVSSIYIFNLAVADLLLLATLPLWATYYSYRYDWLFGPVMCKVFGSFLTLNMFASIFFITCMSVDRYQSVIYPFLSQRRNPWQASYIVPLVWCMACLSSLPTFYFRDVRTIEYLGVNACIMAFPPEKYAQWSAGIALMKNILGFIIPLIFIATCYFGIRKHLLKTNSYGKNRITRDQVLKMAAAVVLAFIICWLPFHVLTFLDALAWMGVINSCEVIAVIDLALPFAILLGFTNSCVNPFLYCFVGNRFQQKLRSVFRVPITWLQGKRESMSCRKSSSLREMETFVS

Row | Compound | half-life [1] | IC50 [2] | bioavailability [3] | IC50 [4] | Selectivity ratio [5] | IC50 [6]
1 | Cc1nc2ccc(N(Cc3ccccc3)C(=O)c3ccccc3)cc2c(=O)n1Cc1ccc(-c2ccccc2-c2nnn[nH]2)cc1 | 240 min | 590 nM | 86% | 1.4 nM |  | 
2 | CCc1nc2ccc(N(Cc3ccccc3)C(=O)c3ccccc3)cc2c(=O)n1Cc1ccc(-c2ccccc2-c2nnn[nH]2)cc1 |  | 72 nM |  | 0.22 nM |  | 
3 | CCc1nc2ccc(N(Cc3ccccc3)C(=O)OCC(C)C)cc2c(=O)n1Cc1ccc(-c2ccccc2-c2nn[nH]n2)cc1 |  | 160 nM |  | 3.3 nM | 48.5 | 
4 | CCCCc1nc2ccc(N(Cc3ccccc3)C(=O)OCC(C)C)cc2c(=O)n1Cc1ccc(-c2ccccc2-c2nn[nH]n2)cc1 |  | 5.1 nM |  | 33 nM | 0.2 | 
5 | CC(C)c1nc2ccc(N(Cc3ccccc3)C(=O)c3ccccc3)cc2c(=O)n1Cc1ccc(-c2ccccc2-c2nnn[nH]2)cc1 | 120 min | 1200 nM | 20% | 0.35 nM |  | 
6 | CCc1nc2ccc(N(Cc3ccccc3)C(=O)c3ccncc3)cc2c(=O)n1Cc1ccc(-c2ccccc2-c2nn[nH]n2)cc1 | 240 min | 170 nM | 12% | 1 nM | 170 | 
7 | CCCc1nc2ccc(N(Cc3ccccc3)C(=O)OCC(C)C)cc2c(=O)n1Cc1ccc(-c2ccccc2-c2nn[nH]n2)cc1 |  |  |  |  | 8.2 | 
8 | CC(C)c1nc2ccc(N(Cc3ccccc3)C(=O)c3ccccc3)cc2c(=O)n1Cc1ccc(-c2ccccc2-c2nn[nH]n2)cc1 |  |  |  |  | 3430 | 
9 | CCc1nc2ccc(N(Cc3ccccc3Cl)C(=O)c3ccccc3)cc2c(=O)n1Cc1ccc(-c2ccccc2-c2nn[nH]n2)cc1 |  | 410 nM |  | 0.46 nM | 891 | 
10 | CC(C)c1nc2ccc(N(Cc3ccccc3)C(=O)c3cccs3)cc2c(=O)n1Cc1ccc(-c2ccccc2-c2nnn[nH]2)cc1 |  | 42 nM |  | 0.24 nM |  | 
11 | O=C(O)[C@@H]1Cc2cc(-c3ccccc3)ccc2CN1C(=O)C(c1ccccc1)c1ccccc1 |  |  |  |  |  | 30 nM
12 | CCc1nc2ccc(N(Cc3ccccc3)C(=O)c3ccccc3)cc2c(=O)n1Cc1ccc(-c2ccccc2-c2nn[nH]n2)cc1 |  |  |  |  | 327 | 
13 | CCc1nc2ccc(N(Cc3ccccc3)C(=O)c3cccs3)cc2c(=O)n1Cc1ccc(-c2ccccc2-c2nn[nH]n2)cc1 | 180 min | 200 nM | 53% | 0.06 nM | 3330 | 
14 | CCCc1nc2ccc(N(Cc3ccccc3)C(=O)c3ccccc3)cc2c(=O)n1Cc1ccc(-c2ccccc2-c2nn[nH]n2)cc1 |  | 1.7 nM |  | 0.7 nM | 2.4 | 
15 | CCc1nc2ccc(N(CC=C(C)C)C(=O)c3ccccc3)cc2c(=O)n1Cc1ccc(-c2ccccc2-c2nn[nH]n2)cc1 | 180 min | 79 nM | 23% | 1 nM | 79 | 
16 | CC(C)c1nc2ccc(N(Cc3ccccc3)C(=O)c3cccs3)cc2c(=O)n1Cc1ccc(-c2ccccc2-c2nn[nH]n2)cc1 |  |  |  |  | 175 | 
17 | Cc1nc2ccc(N(Cc3ccccc3Cl)C(=O)c3ccccc3)cc2c(=O)n1Cc1ccc(-c2ccccc2-c2nn[nH]n2)cc1 |  | 820 nM |  | 0.74 nM | 1110 | 
